Data set [1] concerns the target T1, EqBuChE (Equus caballus, UniProt P81908).
T1 construct: BuChE from equine serum (EqBuChE, Sigma–Aldrich); purchased Sigma–Aldrich; host or cells: equine serum
Briefly: biochemical. Here is the method: (§1) Ellman’s method was used to determine the activity of the synthesized compounds against AChE from electric eel (Electrophorus electricus, EeAChE) and BuChE from equine serum (EqBuChE).
(§2) All assays were performed in 0.1 M phosphate buffer pH 8.0. The tested compounds or water in a blank sample (25 µL) were incubated with the enzyme (20 µL) for 5 min at 25 °C in buffer (765 µL) prior to starting the reaction. Then, DTNB (20 µL) and ATC (20 µL) were added. […] Each condition was measured in triplicate. The percentages of enzyme inhibition were calculated from the equation 100%—Ai/A0 × 100%, where Ai is the absorbance of a sample with an inhibitor and A0 is the absorbance of a blank sample (100% activity of the enzyme). The IC50 values were calculated using GraphPad Prism 5. Data is expressed as mean ± SEM.

Data set [2] addresses T2, EeAChE (Electrophorus electricus, UniProt O42275).
T2 construct: purchased Sigma–Aldrich
Description: biochemical. It counts as biochemical. The note with it: for EeAChE inhibitory activity in words: Ellman's assay. As for the experimental part: as §1, §2

Data set [3] has as its target T3, Aβ1–42 (Homo sapiens, UniProt P05067).
T3 construct: Recombinant human HFIP-pretreated Aβ1–42 peptide; purchased Merck Millipore Lot number 2387442
Description: Thioflavin-T fluorometric assay of self-induced Aβ1–42 aggregation. The note with it: 10 µM compound, 1.5 µM Aβ1–42; mean ± SD; <10 = defined as not active; read-out: Aβ1–42 Aggreg. % of inhibition. Format: biochemical. An excerpt:
Mechanisms of Aβ aggregation remain unclear. Besides the self-induced assembly of Aβ, several other factors affect its aggregation, including metal ions, AChE [45], and oxidative stress. Therefore, we evaluated our compounds using the most versatile and commonly used Aβ1–42 aggregation Thioflavin T assay. Seven structurally diverse compounds were selected (one from each subseries) to test their ability to inhibit self-induced Aβ1–42 aggregation.
Thioflavin-T (ThT) fluorometric assay was performed to investigate the effect of the test compounds on the self-aggregation of Aβ1–42. […] Each sample was prepared in quadruplicate, and the DMSO was always at 3%. To quantify amyloid fibril formation, the ThT fluorescence was measured through the bottom of the plate every 180 s at an excitation wavelength of 440 nm and emission wavelength of 490 nm, with the medium continuously shaking between measurements using a 96-well microplate reader (Synergy™ H4, BioTek Instruments, Inc., Winooski, VT, USA). […] The fluorescence intensities at the plateau in the absence and presence of the test compounds were averaged, and the average fluorescence of the corresponding wells at t = 0 h was subtracted.

For data set [4] the following is noted: PAMPA-BBB; for Log Pe: 2 h at 37 °C, means of two replicates; for Prediction of BBB penetration: class from log Pe. Here is the method: For anti-Alzheimer drug candidates, the ability to cross the blood–brain barrier and to enter the central nervous system (CNS) is crucial to achieve their pharmacological target and activity.
The BBB-PAMPA Explorer Test System was purchased from pION Inc. The in vitro permeability through BBB-1 lipid membrane was determined for 7 commercial drugs and the tested compounds. The compounds were dissolved in DMSO (10 mM stock solution) and diluted with Prisma HT buffer (5 µL/1 mL). Then, the […] 96-well microplate was filled with solution of the tested compounds in buffer (200 µL/well). The filter membrane in acceptor 96-well microplate was impregnated with BBB-1 lipid solution (5 µL/well) and the acceptor plate was filled with Brain Sink Buffer (200 µL/well). The acceptor plate was carefully placed on the donor plate to form a sandwich that was left undisturbed for 2 h at 37 °C. After incubation, the donor plate was carefully removed. The concentration of compounds in the acceptor, the donor, and the reference wells were measured using EnSpire Multimode Microplate Reader (PerkinElmer).

Each structure is given as a SMILES string.

T1 sequence (P81908 whole entry): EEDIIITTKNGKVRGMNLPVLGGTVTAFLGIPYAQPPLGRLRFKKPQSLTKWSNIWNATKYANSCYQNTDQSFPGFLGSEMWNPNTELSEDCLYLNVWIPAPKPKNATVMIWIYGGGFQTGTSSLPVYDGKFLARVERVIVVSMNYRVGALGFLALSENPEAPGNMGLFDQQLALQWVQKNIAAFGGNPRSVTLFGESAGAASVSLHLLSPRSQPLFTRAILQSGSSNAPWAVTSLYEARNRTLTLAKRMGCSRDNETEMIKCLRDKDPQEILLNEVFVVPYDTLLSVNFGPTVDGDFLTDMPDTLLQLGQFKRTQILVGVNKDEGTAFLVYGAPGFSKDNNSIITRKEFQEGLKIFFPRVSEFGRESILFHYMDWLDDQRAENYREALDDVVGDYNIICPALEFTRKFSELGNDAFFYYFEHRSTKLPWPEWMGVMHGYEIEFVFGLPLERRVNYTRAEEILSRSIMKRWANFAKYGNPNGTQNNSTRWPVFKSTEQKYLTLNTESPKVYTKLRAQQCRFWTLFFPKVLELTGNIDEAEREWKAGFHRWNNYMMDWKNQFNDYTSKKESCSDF
T2 sequence (O42275 24-633): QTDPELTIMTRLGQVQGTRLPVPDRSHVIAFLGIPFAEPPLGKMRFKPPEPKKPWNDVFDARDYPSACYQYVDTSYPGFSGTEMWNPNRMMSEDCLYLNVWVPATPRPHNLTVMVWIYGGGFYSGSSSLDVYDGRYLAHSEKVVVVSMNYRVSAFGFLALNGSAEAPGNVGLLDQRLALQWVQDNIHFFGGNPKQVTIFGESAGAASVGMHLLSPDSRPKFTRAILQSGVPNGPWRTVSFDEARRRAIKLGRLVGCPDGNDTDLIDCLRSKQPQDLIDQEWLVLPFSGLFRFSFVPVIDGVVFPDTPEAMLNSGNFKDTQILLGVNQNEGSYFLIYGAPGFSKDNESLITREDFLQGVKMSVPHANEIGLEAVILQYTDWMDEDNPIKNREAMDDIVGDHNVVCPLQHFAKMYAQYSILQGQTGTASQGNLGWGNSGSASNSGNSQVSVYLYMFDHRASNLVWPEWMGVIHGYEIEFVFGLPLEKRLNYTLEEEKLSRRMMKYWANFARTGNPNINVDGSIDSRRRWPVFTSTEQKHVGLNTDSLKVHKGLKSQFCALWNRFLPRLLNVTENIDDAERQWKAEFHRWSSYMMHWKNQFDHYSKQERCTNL
T3 sequence (P05067 672-713): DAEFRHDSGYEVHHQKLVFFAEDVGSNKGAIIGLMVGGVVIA

As for `O=C1c2ccccc2C(=O)N1CCCCCN1CCCC1` [Compound 1, 2-(5-(Pyrrolidin-1-yl)pentyl)isoindoline-1,3-dione], the values for the IC50 in data set [1] and in data set [2] were > 50 µM and 0.781 ± 0.009 µM, respectively.
`O=C1c2ccccc2C(=O)N1CCCCCCN1CCCC1` [Compound 2, 2-(6-(Pyrrolidin-1-yl)hexyl)isoindoline-1,3-dione]: the concentration for half-maximal inhibition (IC50) (in general, the concentration needed to halve the response being measured) was > 50 µM in data set [1] and 0.643 ± 0.006 µM in data set [2].
In the same order, the values of `O=C1c2ccccc2C(=O)N1CCCCCN1CCOCC1` [Compound 5, 2-(5-Morpholinopentyl)isoindoline-1,3-dione] are > 50 µM and 18.1 ± 0.402 µM.
In the same order, the values of `O=C1c2ccccc2C(=O)N1CCCCCCN1CCOCC1` [Compound 6, 2-(6-Morpholinohexyl)isoindoline-1,3-dione] are > 50 µM and 17.2 ± 0.474 µM.
On to `O=C1c2ccccc2C(=O)N1CCCCCCCN1CCOCC1` [Compound 7, 2-(7-Morpholinoheptyl)isoindoline-1,3-dione], for which, in data set [3], the inhibition – broadly, the share of the control response that was lost under treatment – at 10 µM came to 17.1 ± 6.13%. The IC50 in data set [1] was > 50 µM. Moreover, in data set [4], the “Log Pe” value is reported as “–4.2” and the “Prediction of BBB penetration” value was “CNS+ (CNS+, log Pe > −4.5, high permeability (i.e., can enter the CNS))”. In data set [2], the IC50 amounted to 4.11 ± 0.066 µM.
As for `O=C1c2ccccc2C(=O)N1CCCCCCCCN1CCOCC1` [Compound 8, 2-(8-Morpholinooctyl)isoindoline-1,3-dione], the IC50 in data set [1] is > 50 µM; in data set [2] it was 4.5 ± 0.064 µM.
In the same order, the values of `O=C1c2ccccc2C(=O)N1CCCCN1CCc2ccccc2C1` [Compound 9, 2-(4-(3,4-dihydroisoquinolin-2(1H)-yl)butyl)isoindoline-1,3-dione] are 12.82 ± 0.107 µM and 5.6 ± 0.087 µM.
Take `O=C1c2ccccc2C(=O)N1CCCCCN1CCc2ccccc2C1` [Compound 10, 2-(5-(3,4-dihydroisoquinolin-2(1H)-yl)pentyl)isoindoline-1,3-dione]: the IC50 in data set [1] was 5.31 ± 0.16 µM; in data set [2], 1.266 ± 0.011 µM.
Taken in the same sequence, the figures for `O=C1c2ccccc2C(=O)N1CCCCCCCN1CCc2ccccc2C1` [Compound 12, 2-(7-(3,4-Dihydroisoquinolin-2(1H)-yl)heptyl)isoindoline-1,3-dione] were 1.17 ± 0.027 µM and 0.688 ± 0.017 µM.
Consider `O=C1c2ccccc2C(=O)N1CCCCCCCCN1CCc2ccccc2C1` [Compound 13, 2-(8-(3,4-Dihydroisoquinolin-2(1H)-yl)octyl)isoindoline-1,3-dione], for which the inhibition at 10 µM in data set [3] stood at 35.8 ± 5.39%. The compound also registered an IC50 in data set [1] of 0.618 ± 0.009 µM. In addition, in data set [4], the “Log Pe” value is “–4.2” and the “Prediction of BBB penetration” value is reported as “CNS+ (CNS+, log Pe > −4.5, high permeability (i.e., can enter the CNS))”. In data set [2], the IC50 was 0.76 ± 0.017 µM.
With `O=C1c2ccccc2C(=O)N1CCCCCCCCCCN1CCc2ccccc2C1` [Compound 14, 2-(10-(3,4-Dihydroisoquinolin-2(1H)-yl)decyl)isoindoline-1,3-dione], the IC50 is 1.73 ± 0.038 µM in data set [1] and > 50 µM in data set [2]. Also, the “EeAChE inhibitory activity in words” value in data set [2] was “not active”.
In the same order, the values of `O=C1c2ccccc2C(=O)N1CCCCCCCCCCCCN1CCc2ccccc2C1` [Compound 15, 2-(12-(3,4-Dihydroisoquinolin-2(1H)-yl)dodecyl)isoindoline-1,3-dione] are 3.66 ± 0.085 µM, > 50 µM and “not active”.
As to `CCN(CC)CCCCCN1CCc2ccccc2C1` [Compound 20, 5-(3,4-dihydroisoquinolin-2(1H)-yl)-N,N-diethylpentan-1-amine], the IC50 in data set [1] and in data set [2] was > 50 µM in each case.
In the case of `CCN(CC)CCCCCCN1CCc2ccccc2C1` [Compound 21, 6-(3,4-Dihydroisoquinolin-2(1H)-yl)-N,N-diethylhexan-1-amine], the half-maximal inhibitory concentration (IC50) in data set [1] and in data set [2] was > 50 µM each time.
As to `CCN(CC)CCCCCCCN1CCc2ccccc2C1` [Compound 22, 7-(3,4-Dihydroisoquinolin-2(1H)-yl)-N,N-diethylheptan-1-amine], the IC50 in data set [1] was determined as 37.1 ± 0.878 µM; in data set [2], 17.3 ± 0.401 µM.
Take `CCN(CC)CCCCCCCCN1CCc2ccccc2C1` [Compound 23, 8-(3,4-Dihydroisoquinolin-2(1H)-yl)-N,N-diethyloctan-1-amine]: the inhibition at 10 µM in data set [3] is < 10%. In addition, the results for the IC50 in data set [1] and in data set [2] were 14 ± 0.343 µM and 4.72 ± 0.149 µM, respectively.
Take `CCN(CC)CCCn1ccc2ccccc21` [Compound 30, N,N-diethyl-3-(1H-indol-1-yl)propan-1-amine]: the IC50 in data set [1] and in data set [2] was > 50 µM in each case.
Turning to `CCN(CC)CCCCn1ccc2ccccc21` [Compound 31, N,N-diethyl-4-(1H-indol-1-yl)butan-1-amine], the values for the IC50 in data set [1] and in data set [2] were 26 ± 0.813 µM and > 50 µM, respectively.
`CCN(CC)CCCCCn1ccc2ccccc21` [Compound 32, N,N-Diethyl-5-(1H-indol-1-yl)pentan-1-amine]: the results for the IC50 in data set [1] and in data set [2] were 22.6 ± 0.602 µM and > 50 µM, respectively.
In the same order, the values of `CCN(CC)CCCCCCn1ccc2ccccc21` [Compound 33, N,N-Diethyl-6-(1H-indol-1-yl)hexan-1-amine] are 28.7 ± 0.723 µM and > 50 µM.
In the case of `CCN(CC)CCCCCCCn1ccc2ccccc21` [Compound 34, N,N-Diethyl-7-(1H-indol-1-yl)heptan-1-amine], the IC50 turned out to be 1.47 ± 0.593 µM in data set [1] and 22.2 ± 0.424 µM in data set [2].
On to `CCN(CC)CCCCCCCCn1ccc2ccccc21` [Compound 35, N,N-Diethyl-8-(1H-indol-1-yl)octan-1-amine], for which the inhibition at 10 µM in data set [3] amounted to 16.6 ± 2.74%. The results for the IC50 in data set [1] and in data set [2] were 3.47 ± 0.1 µM and 9.56 ± 0.289 µM, respectively.
With `O=C1c2ccccc2S(=O)(=O)N1CCCCCNCc1ccccc1F` [Compound 39, 2-(5-(2-fluorobenzylamino)pentyl)benzo[d]isothiazol-3(2H)-one 1,1-dioxide], the inhibition at 10 µM in data set [3] is 12.3 ± 2.63%. The half-maximal inhibitory concentration (IC50) in data set [1] was > 50 µM. In data set [4], the “Log Pe” value is on record as “–4.0” and the “Prediction of BBB penetration” value is recorded as “CNS+ (CNS+, log Pe > −4.5, high permeability (i.e., can enter the CNS))”. In addition, half-maximal inhibition in data set [2] (IC50) required 0.15 ± 0.003 µM.
Take `O=C1c2ccccc2S(=O)(=O)N1CCCCCCNCc1ccccc1F` [Compound 40, 2-(6-(2-fluorobenzylamino)hexyl)benzo[d]isothiazol-3(2H)-one 1,1-dioxide]: the concentration for half-maximal inhibition (IC50) in data set [1] was > 50 µM; in data set [2], 1.14 ± 0.015 µM.
As for `O=C1c2ccccc2S(=O)(=O)N1CCCCCCCNCc1ccccc1F` [Compound 41, 2-(7-(2-fluorobenzylamino)heptyl)benzo[d]isothiazol-3(2H)-one 1,1-dioxide], the values for the IC50 in data set [1] and in data set [2] were 4.97 ± 0.127 µM and 0.735 ± 0.009 µM, respectively.
Taken in the same sequence, the figures for `O=C1c2ccccc2S(=O)(=O)N1CCCCCCNCc1cccc(Cl)c1` [Compound 43, 2-(6-(3-chlorobenzylamino)hexyl)benzo[d]isothiazol-3(2H)-one 1,1-dioxide] were 6.54 ± 0.163 µM and 0.596 ± 0.006 µM.
Take `O=C1c2ccccc2S(=O)(=O)N1CCCCCCCNCc1cccc(Cl)c1` [Compound 44, 2-(7-(3-chlorobenzylamino)heptyl)benzo[d]isothiazol-3(2H)-one 1,1-dioxide]: the values for the IC50 in data set [1] and in data set [2] were 2.46 ± 0.032 µM and 0.923 ± 0.012 µM, respectively.
Regarding `CC(=O)[C@H]1CC[C@H]2[C@@H]3CCC4=CC(=O)CC[C@]4(C)[C@H]3CC[C@]12C` [Progesterone, reference compound], the “Prediction of BBB penetration” value in data set [4] is reported as “CNS+ (CNS+, log Pe > −4.5, high permeability (i.e., can enter the CNS))”.
With `CC(C)NCC(O)COc1cccc2ccccc12` (stereo not shown) [Propranolol, reference compound], the “Prediction of BBB penetration” value in data set [4] is “CNS+ (CNS+, log Pe > −4.5, high permeability (i.e., can enter the CNS))”.
Take `Cn1c(=O)c2[nH]cnc2n(C)c1=O` [Theophylline, reference compound]: the “Log Pe” value in data set [4] is “–6.3”.
